The target in the first assay is T1, recombinant human ASK1 protein (Homo sapiens, UniProt Q99683).
T1 sequence (Q99683 1-1374): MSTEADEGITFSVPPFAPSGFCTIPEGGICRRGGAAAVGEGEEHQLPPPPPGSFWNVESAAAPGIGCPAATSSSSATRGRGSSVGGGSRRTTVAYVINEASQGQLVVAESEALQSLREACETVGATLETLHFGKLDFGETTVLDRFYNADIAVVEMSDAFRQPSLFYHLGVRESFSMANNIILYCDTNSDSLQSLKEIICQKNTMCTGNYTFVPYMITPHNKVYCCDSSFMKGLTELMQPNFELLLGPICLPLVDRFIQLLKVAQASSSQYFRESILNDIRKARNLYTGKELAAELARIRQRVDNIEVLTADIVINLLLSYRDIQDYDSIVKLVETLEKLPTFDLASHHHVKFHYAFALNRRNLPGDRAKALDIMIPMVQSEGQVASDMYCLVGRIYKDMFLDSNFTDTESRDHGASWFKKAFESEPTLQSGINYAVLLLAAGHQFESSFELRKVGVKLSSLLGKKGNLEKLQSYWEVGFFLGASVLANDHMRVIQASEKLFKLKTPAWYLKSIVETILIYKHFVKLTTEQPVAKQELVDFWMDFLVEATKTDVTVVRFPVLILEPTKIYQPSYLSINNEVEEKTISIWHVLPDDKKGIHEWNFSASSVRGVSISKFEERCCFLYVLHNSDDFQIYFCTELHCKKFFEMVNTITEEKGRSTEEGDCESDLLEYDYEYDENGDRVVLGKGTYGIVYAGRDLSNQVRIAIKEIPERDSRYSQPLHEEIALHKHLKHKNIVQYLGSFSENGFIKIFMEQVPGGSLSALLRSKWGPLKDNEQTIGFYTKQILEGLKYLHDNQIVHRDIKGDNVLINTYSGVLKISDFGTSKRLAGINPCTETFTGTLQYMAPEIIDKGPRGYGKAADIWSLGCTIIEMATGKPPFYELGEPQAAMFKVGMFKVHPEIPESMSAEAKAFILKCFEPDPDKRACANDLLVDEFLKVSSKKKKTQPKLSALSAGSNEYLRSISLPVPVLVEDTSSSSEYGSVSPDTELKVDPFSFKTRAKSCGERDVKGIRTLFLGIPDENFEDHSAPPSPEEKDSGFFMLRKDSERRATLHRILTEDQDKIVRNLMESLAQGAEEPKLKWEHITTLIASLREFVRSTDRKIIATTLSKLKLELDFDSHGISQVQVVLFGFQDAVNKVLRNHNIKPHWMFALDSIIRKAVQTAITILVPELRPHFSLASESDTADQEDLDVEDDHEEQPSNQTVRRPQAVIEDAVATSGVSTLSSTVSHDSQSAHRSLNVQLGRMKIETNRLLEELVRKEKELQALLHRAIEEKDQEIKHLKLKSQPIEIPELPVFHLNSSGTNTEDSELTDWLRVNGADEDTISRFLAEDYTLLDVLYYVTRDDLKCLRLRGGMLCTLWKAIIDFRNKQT
The assay can be described thus: Evaluation of ASK1 inhibition activity ([gamma-33P]-ATP, scintillation counting). In kind it is biochemical.
Settings: not given
Here is the method: The recombinant human ASK1 protein was initiated by adding a mixture of Mg/ATP to the reaction solution (8 mM MOPS PH 7.0, 0.2 mM EDTA, 0.33 mg/mL myelin basic protein, 10 mM Mg Acetate and [gamma-33P]-ATP), and the reaction was terminated by adding 0.5% phosphoric acid after 40 min at room temperature.
Consider `Cc1cc(F)c(C(=O)Nc2cccc(-n3nnc4ccccc43)n2)cc1-n1cnc(C2CC2)c1` [Example 1, N-(6-(1H-benzo[d][1,2,3]triazole-1-yl)pyridine-2-yl)-5-(4-cyclopropyl-1H-imidazole-1-yl)-2-fluoro-4-methylbenzamide], for which the IC50 is 0.235 µM.

Take `Cc1cc(F)c(C(=O)Nc2cccc(-n3nnc4c3CCCCCC4)n2)cc1-n1cnc(C2CC2)c1` [Example 5, 5-(4-cyclopropyl-1H-imidazole-1-yl)-2-fluoro-N-(6-(4,5,6,7,8,9-hexahydro-1H-cycloocta[d][1,2,3]triazole-1-yl)pyridine-2-yl)-4-methylbenzamide]: the IC50 was found to be 0.198 µM.

The assay is the same for the next values; noted with them: 0.5 uM; activity of group without compound set at 100%; read-out: Remaining kinase activity (%) at 0.5 uM.
On to `Cc1cc(F)c(C(=O)Nc2cccc(-n3nnc4ccccc43)n2)cc1-n1cnc(C2CC2)c1` [Example 1, N-(6-(1H-benzo[d][1,2,3]triazole-1-yl)pyridine-2-yl)-5-(4-cyclopropyl-1H-imidazole-1-yl)-2-fluoro-4-methylbenzamide], for which the remaining activity at 0.5 µM stood at 14%.

On to `COc1ccc(-n2cnc(C3CC3)c2)cc1C(=O)Nc1cccc(-n2nnc3c2CCC3)n1` [Example 6, 5-(4-cyclopropyl-1H-imidazol-1-yl)-N-(6-(5,6-dihydrocyclopenta[d][1,2,3]triazol-1 (4H)-yl)pyridin-2-yl)-2-methoxybenzamide], for which the remaining activity at 0.5 µM is 0%.

As for `COc1ccc(-n2cnc(C3CC3)c2)cc1C(=O)Nc1cccc(-n2nnc3c2CCCC3)n1` [Example 7, 5-(4-cyclopropyl-1H-imidazol-1-yl)-2-methoxy-N-(6-(4,5,6,7-tetrahydro-1H-benzo[d][1,2,3]triazol-1-yl)pyridin-2-yl)benzamide], the remaining activity at 0.5 µM was found to be 2%.

Turning to `COc1cc(C)c(-n2cnc(C3CC3)c2)cc1C(=O)Nc1cccc(-n2nnc3c2CCC3)n1` [Example 8, 5-(4-cyclopropyl-1H-imidazol-1-yl)-N-(6-(5,6-dihydrocyclopenta[d][1,2,3]triazol-1 (4H)-yl)pyridin-2-yl)-2-methoxy-4-methylbenzamide], the remaining activity at 0.5 µM came out at 0%.

`COc1cc(C)c(-n2cnc(C3CC3)c2)cc1C(=O)Nc1cccc(-n2nnc3c2CCCC3)n1` [Example 9, 5-(4-cyclopropyl-1H-imidazol-1-yl)-2-methoxy-4-methyl-N-(6-(4,5,6,7-tetrahydro-1H-benzo[d][1,2,3]triazol-1-yl)pyridin-2-yl)benzamide]: the remaining activity at 0.5 µM worked out at 0%.

For `CCOc1cc(C)c(-n2cnc(C3CC3)c2)cc1C(=O)Nc1cccc(-n2nnc3c2CCC3)n1` [Example 10, 5-(4-cyclopropyl-1H-imidazol-1-yl)-N-(6-(5,6-dihydrocyclopenta[d][1,2,3]triazol-1 (4H)-yl)pyridin-2-yl)-2-ethoxy-4-methylbenzamide], the remaining activity at 0.5 µM was 14%.

As to `CCOc1cc(C)c(-n2cnc(C3CC3)c2)cc1C(=O)Nc1cccc(-n2nnc3c2CCCC3)n1` [Example 11, 5-(4-cyclopropyl-1H-imidazol-1-yl)-2-ethoxy-4-methyl-N-(6-(4,5,6,7-tetrahydro-1H-benzo[d][1,2,3]triazol-1-yl)pyridin-2-yl)benzamide], the remaining activity at 0.5 µM stood at 29%.

For `Cc1cc(OC(C)C)c(C(=O)Nc2cccc(-n3nnc4c3CCC4)n2)cc1-n1cnc(C2CC2)c1` [Example 12, 5-(4-cyclopropyl-1H-imidazol-1-yl)-N-(6-(5,6-dihydrocyclopenta[d][1,2,3]triazol-1 (4H)-yl)pyridin-2-yl)-2-isopropoxy-4-methylbenzamide], the remaining activity at 0.5 µM is 0%.

As for `Cc1cc(OC(C)C)c(C(=O)Nc2cccc(-n3nnc4c3CCCC4)n2)cc1-n1cnc(C2CC2)c1` [Example 13, 5-(4-cyclopropyl-1H-imidazol-1-yl)-2-isopropoxy-4-methyl-N-(6-(4,5,6,7-tetrahydro-1H-benzo[d][1,2,3]triazol-1-yl)pyridin-2-yl)benzamide], the remaining activity at 0.5 µM is 9%.

As for `Cc1cc(OC(F)F)c(C(=O)Nc2cccc(-n3nnc4c3CCC4)n2)cc1-n1cnc(C2CC2)c1` [Example 14, 5-(4-cyclopropyl-1H-imidazol-1-yl)-2-(difluoromethoxy)-N-(6-(5,6-dihydrocyclopenta[d][1,2,3]triazol-1 (4H)-yl)pyridin-2-yl)-4-methylbenzamide], the remaining activity at 0.5 µM was 1%.

One may read the IC50 as the concentration that inhibits the measured activity by half. A word on the remaining activity: it is the share of the control activity or signal that is left under treatment.
